# In PMC11839907, “Deciphering the tight metabolite‐level regulation of glucose‐1‐phosphate adenylyltransferase (GlgC) for glycogen synthesis in cyanobacteria” (The Febs Journal, 2024):
# Like-named read-outs stand apart in the source and are kept apart here.
# Assays:
# [1] = target: T1, GlgC (Synechocystis sp. PCC 6803, UniProt P52415); assay: continuous GlgC-GlgA1 / pyruvate kinase / LDH coupled assay, A340; assay type: biochemical
# T1 construct: shorter variant lacking first 10 residues of P52414, starts VKRVLAIILGG (primer 3); N-terminal His-tag (pET28a), E. coli Rosetta-gami (DE3); active as tetramer
# T1 sequence (P52415 11-439): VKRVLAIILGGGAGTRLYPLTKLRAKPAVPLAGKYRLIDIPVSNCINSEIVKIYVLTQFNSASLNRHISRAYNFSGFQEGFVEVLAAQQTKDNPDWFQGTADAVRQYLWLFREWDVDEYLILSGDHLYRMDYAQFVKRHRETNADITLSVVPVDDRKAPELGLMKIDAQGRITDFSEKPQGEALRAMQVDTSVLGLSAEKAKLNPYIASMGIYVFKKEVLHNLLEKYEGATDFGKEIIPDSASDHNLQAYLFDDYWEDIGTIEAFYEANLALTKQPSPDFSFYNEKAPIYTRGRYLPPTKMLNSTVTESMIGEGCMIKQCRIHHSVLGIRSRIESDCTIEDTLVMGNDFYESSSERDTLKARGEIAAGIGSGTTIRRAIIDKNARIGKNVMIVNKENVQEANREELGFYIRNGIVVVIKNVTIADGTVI
# [2] = target: T1, GlgC; assay: as above; assay type: biochemical; conditions: read-out: 3-PGA (mM) / 0.00
compound,measurement,setting,value
O=C(O)[C@H](O)COP(=O)(O)O [3-PGA],EC50,[1],430 µM
O=P(O)(O)O [Pi],IC50,[2],0.42 mM
O=P(O)(O)OC[C@H]1OC(O)(CO)[C@@H](O)[C@@H]1O (stereo partly drawn) [Fru-6P],EC50,"[1]; activator, no 3-PGA, 0.25 mM Glc-1P, 2 mM ATP, 12 mM MgCl2, pH 8.0, 30 °C",2300 µM
